Measured values taken from patent publication US8859502B2, “Therapy for MLL-rearranged leukemia” (Celgene Corporation, priority 2010, dated 2014).

Experiments:
[1] = tested on: t(4;11)-positive ALL cells; assay type: cell-based, human; conditions: for therapeutic index and specificity towards t(4;11)-positive ALL cells: SEM, RS4;11, MLL-AF4 patient cells versus normal bone marrows, FIG. 6
From the text: VPA, D. romidepsin, E. MS-275. Error bars represent standard errors of the mean (SEM).

[2] = tested on: RS4;11 cell line; experiment: Proto-oncogene mRNA expression by quantitative real-time PCR after exposure to HDAC inhibitors, RS4;11; assay type: cell-based, human; conditions: RS4;11, mRNA by quantitative real-time PCR
Description: (§1) FIGS. 8A, 8B, 8C, 8D, 8E, 8F and 8G show relative proto-oncogene mRNA expression after exposure to HDAC inhibitors in SEM cell line. FIGS. 8AA, 8BB, 8CC, 8DD, 8EE, 8FF and 8GG show relative proto-oncogene mRNA expression after exposure to HDAC inhibitors in RS4;11 cell line. mRNA expression levels of the proto-oncogenes A. RAN, B. SET, C. […] For RUNX1, PARK7, DIAPH1 and HOXA9 data after 24 hours exposure are presented as well (hatch fill). Expression levels in SEM or RS4;11 were set to 100%.
(§2) Total RNA was reverse transcribed and the obtained cDNA was used to quantify mRNA expression by using quantitative real-time PCR analysis as described in Stam et al., Haematologica 92(11):1565-1568, 2007). […] Per experiment, samples were analyzed in duplicate and all experiments were conducted twice. […]
(§3) To explore the mechanism of action of HDAC inhibitors on induced leukemic cell death in MLL-rearranged ALL, the t(4;11)-positive ALL cell lines SEM and RS4;11 were exposed to various concentrations of TSA, SAHA, VPA, MS-275 and romidepsin for 6, 24 or 48 hours. During these exposures, cell viability was monitored by trypan blue exclusion (FIG. 7). Quantitative real-time PCR was used to determine the mRNA expression levels of MYC, SET, RUNXI, RAN, HOXA9, DIAPHI and PARK7 in the cell lines SEM and RS4;11 during exposure to the different HDAC inhibitors. […]

[3] = tested on: SEM cell line; experiment: Proto-oncogene mRNA expression by quantitative real-time PCR after exposure to HDAC inhibitors, SEM; assay type: cell-based, human
Description: as §1, §2, §3

[4] = tested on: healthy hematopoietic bone marrow cells

| SMILES | therapeutic index and specificity towards t(4;11)-positive ALL cells [1] | expression of the selected proto-oncogenes [2] | expression of the selected proto-oncogenes [3] | in vitro cytotoxicity on the leukemic cell population [1] | effect on healthy hematopoietic bone marrow cells [4] |
| --- | --- | --- | --- | --- | --- |
| Nc1ccccc1NC(=O)c1ccc(CNC(=O)OCc2cccnc2)cc1 [MS-275] | high therapeutic index and a preferred specificity towards targeting t(4;11)-positive ALL cells |  |  |  |  |
| O=C(CCCCCCC(=O)Nc1ccccc1)NO [Vorinostat] |  | consistently repressed most of the selected proto-oncogenes | consistently repressed most of the selected proto-oncogenes |  |  |
| C/C=C1\NC(=O)[C@H]2CSSCC/C=C/[C@H](CC(=O)N[C@H](C(C)C)C(=O)N2)OC(=O)[C@H](C(C)C)NC1=O [romidepsin, (1S,4S,7Z,10S,16E,21R)-7-ethylidene-4,21-bis(1-methylethyl)-2-oxa-12,13-dithia-5,8,20,23-tetrazabicyclo[8.7.6]tricos-16-ene-3,6,9,19,22-pentone] | high therapeutic index and a preferred specificity towards targeting t(4;11)-positive ALL cells |  |  |  |  |
| CC(/C=C/C(=O)NO)=C\[C@@H](C)C(=O)c1ccc(N(C)C)cc1 [trichostatin A] | high therapeutic index and a preferred specificity towards targeting t(4;11)-positive ALL cells | consistently repressed most of the selected proto-oncogenes | consistently repressed most of the selected proto-oncogenes | consistent eradication of the entire leukemic cell population | harmless for healthy hematopoietic bone marrow cells |
